Measurements taken from PMC7727793, “Aggregation Behavior, Antibacterial Activity and Biocompatibility of Catanionic Assemblies Based on Amino Acid-Derived Surfactants” (International Journal of Molecular Sciences, 2020).

Columns and labels:
[1] = SAXS, core-shell model fit; type: physicochemical
Method: SAXS was measured at the Non-Crystalline Diffraction beamline at ALBA Synchrotron NCD-SWEET, Barcelona. A sample-detector distance of 2.433 m was used with 0.10 nm wavelength coupled with a Q315r detector from ADSC. The q scale was calibrated with a silver behenate sample, and data reduction was performed with the software provided by the beamline. The intensity is shown as a function of scattering vector q expressed in nm^−1. q = (4π/λ) sin(θ/2), where θ is the scattering angle and λ is the wavelength of radiation. The spectra have been fitted to lamellar models based on Gaussian description of the bilayer electronic profile for the vesicles, as described in Haba et al.. We have kept the bilayer hydrophobic profile constant along all the samples to avoid overfitting. In these conditions, the estimated error in the position of the headgroups is 2% and 5% for the width of the Gaussian. The pure histidine derivative DMHNHC14 has been fitted to a core-shell model as described in Reference. SAXS of the pure DMHNHC14 compound was measured using an in-house instrument S3-MICRO (Hecus X-ray systems GMBH, Graz, Austria) coupled to a GENIX-Fox three-dimensional (3D) X-ray source (Xenox, Grenoble, France), as described in Reference and performing the same procedures as detailed therein.

erythrocytes = type: cell-based, rabbit
Method: The erythrocytes, taken from rabbit blood samples, were washed three times in PBS (pH 7.4) and resuspended in PBS at a cell density of 8 × 10^9 cells/mL. The hemolytic activity of the catanionic formulations used in this work was carried out using the procedure described by Pape et al. with minor modifications. A series of different volumes of a concentrated solution (1000 μM for the general case and 5000 μM for the 20:80 and cholesterol-containing formulations) of the catanionic formulation (10–80 μL) were placed in polystyrene tubes containing 25 μL of the prepared erythrocyte suspension and PBS buffer was added to each tube to a total volume of 1 mL. The resulted solutions were incubated at room temperature and shaken for 10 min and the tubes were then centrifuged (5 min at 10,000 rpm). The hemolysis (%) was calculated by comparing the absorbance (540 nm) of the supernatant of the solutions with that of Milli-Q water (control 100% hemolysis) and PBS buffer solution (control, 0% hemolysis).

N(π),N(τ)-bis(methyl)-L-Histidine tetradecyl amide [DMHNHC14]
Aggregation number ([1]; from SAXS core-shell fit): 64
Area per molecule (SAXS) ([1]; from SAXS core-shell fit): 0.66 nm^2
Hydration degree per polar head ([1]; from hydrophilic shell volume and electronic density): about 17 water molecules
Hydrophilic corona thickness (core-shell model) ([1]; micelles of pure surfactant): 0.88 nm
Hydrophobic radius (core-shell model) ([1]; micelles of pure surfactant): 1.84 nm
Hemolytic activity (erythrocytes): increases with the dose
